Data published in patent US6762193B1, “Method of treating hair loss” (priority 2000, dated 2004).

Experiments:
Format in all cases: in vivo, human
[1] = system: acne vulgaris/acne rosacea; assay: Inception cohort investigational study of zafirlukast in acne vulgaris/acne rosacea patients
From the text: This study was designed to evaluate the effectiveness in treating acne vulgaris with the drug zafirlukast After having established a mechanism by which zafirlukast would be effective in the treatment of acne vulgaris, and subsequently treating a single case of acne conglobata successfully during the summer and fall of 1999, this study was purposely designed to evaluate the treatment of acne vulgaris with the drug zafirlukast
Objective: To determine if the anti-leukotriene zafirlukast is effective in the treatment of acne vulgaris/acne rosacea.
Design: Inception cohort investigational study conducted from October 1999 to January 2000.
Setting: Rural Family Practice clinic in Waldheim, La.
Participants: A total of 7 male and 8 female patients aged 12-45 years diagnosed with mild, moderate, or severe acne vulgaris including one case of acne conglobata and 2 cases of acne rosacea were given 20 mg. of zafirlukast (ACCOLATE® brand from AstraZeneca) twice daily from week 1 through week 4. The dose was increased to 30 mg. twice daily at week 4 and continued through week 8. At week 8 the dose of zafirlukast was decreased to 20 mg twice daily and continued until the termination of the study at 10 weeks.
Between the months of October and November 1999 both adolescent and adult patients were recruited consecutively at a family practice clinic in rural Louisiana to participate in an investigational study to determine the effectiveness of zafirlukast in the treatment of acne vulgarism Those patients who provided informed consent and who have reported a prior medical diagnosis of acne vulgaris were enlisted into the study. This cohort was composed of a total of seven male and eight female Caucasian patients, age twelve to forty five years, diagnosed with mild, moderate or severe acne vulgaris.
Pre-study recruitment assessment data was consistent with the following: one of fifteen patients was diagnosed with acne conglobata; two of fifteen patients were […] with acne rosacea, one of which had acne scars who had previously been treated with oral isotretinoin for nodular-cystic acne; eleven of fifteen patients with moderate to severe inflammatory/nodular-cystic acne; all patients had self medicated with topical comedolytic over-the-counter agents; three of fifteen patients had never been treated with prescription (topical or systemic) medications; twelve of fifteen patients were prescribed a range of three to five medical prescriptions (both topical and systemic) with varying degrees of success and failure; three of fifteen patients had previously taken oral isotretinoin; two of fifteen patients had been offered oral isotretinoin but refused that treatment.
Inclusion criteria for study enlistment encompassed any patient who was requesting medical treatment of a chief complaint of acne dermatitis, coincident with a clinical diagnosis of acne vulgaris confirmed by physical examination. These patients voluntarily agreed to be treated with zafirlukast knowing that alternative treatment (both topical and systemic) were available. At the initial visit all patients were instructed on the use of zafirlukast This was to be administered by mouth twice daily. The potential side effects, potential adverse reactions, and other risks were all explained. Patients all agreed to avoid any over-the-counter acne preparations and were to use any household soft-soap product to wash the facial skin twice daily. Zafirlukast was to be administered at the dose of 20 mg. twice daily from week one through week four and then to be increased to 30 mg. twice daily at week four and continued through week eight. At week eight the dose of zafirlukast was to be decreased to 20 mg. taken twice daily and continued until the completion of the study at ten weeks.
Main Outcome Measures: Subjective and objective medical examination and qualitative photographic analysis were employed at each patients initial visit to establish baseline. […]

[2] = system: androgenetic alopecia; assay: Investigative study of zafirlukast in androgenetic alopecia / hereditary balding (hair loss and regrowth)
Procedure: (§1) During the summer of 2000 an investigative study was initiated to determine the efficacy of zafirlukast in the treatment of androgenetic alopecia A middle aged blond haired person whom was actively undergoing genetically influenced alopecia was recruited and voluntarily enlisted into the study under informed consent. […] Just two months earlier serum luteinizing hormone, total testosterone, androstenedione and dehydroepiandrosterone sulfate levels were determined to be normal. Having considered that dihydrotestosterone levels may have been suppressed to a low normal range, as pre treatment dihydrotestosterone serum determination had not been performed, the dose of zafirlukast was increased to 40 mg taken by mouth twice daily. Continuing this dose for a one month period of time, serum dihydrotestosterone levels were reanalized and determined to be 21 NG/DL (normal 25 to 75 NG/DL). […] The patient was then withdrawn, from zafirlukast therapy and there were no specific complications or side effects during a one month abstinence from zafirlukast and serum dihydrotestosterone levels were redetermined and found to be 15 NG/DL (normal 25 to 75 NG/DL). This patient was then given the option to continue treatment with zafirlukast at a dose of 40 mg taken by mouth twice daily for the treatment of androgenic alopecia and decided to do so as they had witnessed the continued regrowth of hair and remission of hair loss while taking zafirlukast. […] The results are as follows:
(§2) In person two undergoing treatment with zafirlukast at 40 mg po bid for hereditary balding, their pretreatment dihydrotestosterone level was 5 NG/DL (normal 5 to 30 NG/DL); after 4 weeks of continuous treatment their dihydrotestosterone serum concentration was 4 NG/DL (normal 5 to 30 NG/DL) and at 6 weeks of continued treatment their serum dihydrotestosterone level was determined to be less than 3 NG/DL.

[3] = system: dihydrotestosterone; assay: Serum dihydrotestosterone level in patients treated with zafirlukast
Procedure: as §1
In person one undergoing treatment for Grade IV cystic acne vulgaris with zafirlukast at 40 mg po bid (by mouth twice a day) for 4 weeks, preceded by 2 weeks of zafirlukast treatment at 30 mg bid, their serum dihydrotestosterone level was determined to be 16 NG/DL (normal was 25 to 75 NG/DL).
as §2

[4] = Serum ancillary hormone and liver function studies during zafirlukast treatment
Procedure: During the summer of 2000 an investigative study was initiated to determine the efficacy of zafirlukast in the treatment of androgenetic alopecia A middle aged blond haired person whom was actively undergoing genetically influenced alopecia was recruited and voluntarily enlisted into the study under informed consent. […] Just two months earlier serum luteinizing hormone, total testosterone, androstenedione and dehydroepiandrosterone sulfate levels were determined to be normal. Having considered that dihydrotestosterone levels may have been suppressed to a low normal range, as pre treatment dihydrotestosterone serum determination had not been performed, the dose of zafirlukast was increased to 40 mg taken by mouth twice daily. Continuing this dose for a one month period of time, serum dihydrotestosterone levels were reanalized and determined to be 21 NG/DL (normal 25 to 75 NG/DL). […] The patient was then withdrawn, from zafirlukast therapy and there were no specific complications or side effects during a one month abstinence from zafirlukast and serum dihydrotestosterone levels were redetermined and found to be 15 NG/DL (normal 25 to 75 NG/DL). This patient was then given the option to continue treatment with zafirlukast at a dose of 40 mg taken by mouth twice daily for the treatment of androgenic alopecia and decided to do so as they had witnessed the continued regrowth of hair and remission of hair loss while taking zafirlukast. […]
In this study a dose and time dependent effect has been identified with the treatment of both acne vulgaris and common baldness in genetically susceptible men and women without physical or psychological compromise, or forfeit of quality of life. […] Serum liver function studies monitored during this study remained in the normal range of value except in one patient with known Hepatitis C and abnormal pretreatment liver function studies; however, in all patients including the one patient with Hepatitis C, serum liver function studies improved with zafirlukast treatment possibly indicating a role in treating liver diseases in the future.

[5] = system: Grade IV cystic acne vulgaris; assay: Zafirlukast treatment of a patient with Grade IV cystic acne vulgaris; settings: person one, 40 mg po bid

Question: With COc1cc(C(=O)NS(=O)(=O)c2ccccc2C)ccc1Cc1cn(C)c2ccc(NC(=O)OC3CCCC3)cc12 [zafirlukast] as the molecule, how does the “added benefit of higher dose” value ([1]; 30 mg twice daily from week 4 thru week 8 versus 20 mg twice daily) read?
Answer: The value was “no added benefit”.

Question: And the “acne remission during the study” value ([1]; 15 patients, 20-30 mg twice daily oral, 10 weeks)?
Answer: The value was “all participants attained periods of acne remission”.

Question: What about the “time to subjective and objective clinical improvement” value ([1]; after initiating zafirlukast therapy, routinely, observed as early as two weeks) of the same molecule?
Answer: Its value is 3-4 weeks.

Question: And the “time to acne reoccurrence in consistently non-compliant patients” value ([1]; after more than 2-3 doses missed)?
Answer: Its value is 2 to 3 days.

Question: What about the “reduction of perilesional erythema” value ([1]; by week eight) of the same molecule?
Answer: The value was 80-90%.

Question: What about the “reduction of perilesional erythema” value ([1]; by week four) of the same molecule?
Answer: The value was 40-50%.

Question: And the “resolution of perilesional erythema” value ([1]; by week two)?
Answer: The value was 10-15%.

Question: And the “reoccurrence of acne form lesions after discontinuation” value ([1]; discontinuation of therapy over a 5-7 day period)?
Answer: The value was “equal to baseline levels”.

Question: What about the “remission in the one patient compliant throughout the entire study” value ([1]; fully compliant patient) of the same molecule?
Answer: The value was “complete remission”.

Question: And the side effects ([1]; one participant with acne rosacea, taken on an empty stomach, only participant with side effects, none at 10 mg twice daily)?
Answer: Its side effects is “asthenia”.

Question: And the “side effects or adversities” value ([2]; person one (acne) and person two (balding), 40 mg po bid)?
Answer: The value was “never witnessing any side effects or adversities”.

Question: What about the “regrowth of frontal hair” value ([2]; person two, 40 mg po bid) of the same molecule?
Answer: Its value is “regrowth of frontal hair”.

Question: And the regrowth of hair ([2]; person, 20 mg twice daily, by the fourth month)?
Answer: The regrowth of hair was “regrowth of hair in the area of temporat and vertex balding was observed”.

Question: And the “occurrence of hair loss” value ([2]; person, 20 mg twice daily, within the first 6 weeks)?
Answer: Its value is “less occurrence of hair loss”.

Question: And the side effects ([2]; person, 20-40 mg twice daily)?
Answer: The side effects was “never any side effects observed”.

Question: What about the serum dihydrotestosterone level ([3]; person one, 40 mg po bid for 4 weeks preceded by 2 weeks at 30 mg bid, normal 25 to 75) of the same molecule?
Answer: The serum dihydrotestosterone level was 16 ng/dL.

Question: And the dihydrotestosterone serum concentration ([3]; person two, 40 mg po bid, after 4 weeks, pretreatment 5, normal 5 to 30)?
Answer: The dihydrotestosterone serum concentration was 4 ng/dL.

Question: And the serum dihydrotestosterone level ([3]; person two, 40 mg po bid, at 6 weeks)?
Answer: The serum dihydrotestosterone level was “less than 3 NG/DL”.

Question: And the serum dihydrotestosterone level ([3]; person, 20 mg twice daily, completion of fourth month, normal 25 to 75)?
Answer: Its serum dihydrotestosterone level is 32 ng/dL.

Question: And the serum dihydrotestosterone level ([3]; person, 40 mg twice daily for one month, normal 25 to 75)?
Answer: Its serum dihydrotestosterone level is 21 ng/dL.

Question: What about the serum dihydrotestosterone level ([3]; person, after one month abstinence from zafirlukast, normal 25 to 75) of the same molecule?
Answer: Its serum dihydrotestosterone level is 15 ng/dL.

Question: And the “serum liver function studies” value ([4]; all patients including one with Hepatitis C)?
Answer: The value was “improved”.

Question: What about the “serum luteinizing hormone, total testosterone, androstenedione and dehydroepiandrosterone sulfate levels” value ([4]; person, 20 mg twice daily, about second month) of the same molecule?
Answer: The value was “normal”.

Question: What about the “serum 3-alpha androstanediol glucuronide, estrone, androstenedione, total testosterone, prostate specific antigen, and progesterone levels” value ([4]; person, 40 mg twice daily for one month) of the same molecule?
Answer: Its value is “within normal limits”.

Question: What about the “acne lesion remission and clearing” value [5] of the same molecule?
Answer: Its value is “significant improvement”.
